Where two headings read alike, the source gives them in different places.
Columns and labels:
[1] = Inhibition of body weight gain in Yoshida sarcoma-bearing rats (Pharmacological Test Example 1); parameters: species or system rat (male Donryu/CRJ strain); details: rat, in vivo
Yoshida sarcoma cells [2] = experiment: Antitumor effect on subcutaneously transplanted Yoshida sarcoma (Pharmacological Test Example 1); assay type: in vivo, rat (male Donryu/CRJ strain); details: oral; for ED50: Rattus norvegicus, YOSHIDA, once a day for 7 consecutive days from 24 h after transplantation, 8th day, read-out: ED50 (effective dose for achieving 50% inhibition of tumor growth); for T.I. (therapeutic index = BWC50/ED50): once a day for 7 consecutive days
Method: The compounds of the present invention were tested for antitumor effect.
Rat-transplantable tumor, Yoshida sarcoma cells (2×10^4) were subcutaneously transplanted in the back of male Donryu/CRJ strain rats (weighing 150 to 165 g). The test compounds were suspended in a 0.5% aqueous solution of hydroxypropylmethyl cellulose. Twenty-four hours after the transplantation, each suspension was orally administered to rats (7 rats in each group) in an amount of 1.0 ml per 100 g of rats' body weight once a day for 7 consecutive days. Only a solution of hydroxypropylmethyl cellulose containing no test compound was orally administered to the control group in an amount of 1.0 ml/100 g rats' body weight once a day for 7 consecutive days starting 24 hours after the transplantation.
The rats were sacrificed on the 8th day after the transplantation and their tumors were extirpated. The tumors were weighed to calculate an average tumor weight at each dose. The results were compared between the treated group and the control group. An effective dose (ED50) for achieving 50% inhibition of tumor growth was determined from the dose-tumor reduction curve. A dose of 50% inhibition of body weight gain (BWC50)was determined from the dose-body weight change curve. The therapeutic index (T.I.=BWC50 /ED50) was also determined.

[3] = system: human stomach cancer strain, H-81; experiment: Tumor growth inhibition, nude rat-transplantable human stomach cancer strain H-81 (Pharmacological Test Example 2(b)); assay type: in vivo, human tumor in male F344/N Jcl-rnu nude rat; details: once a day for 14 consecutive days
From the text: (§1) (a) A tumor piece (about 2 mm^3) of nude rat-transplantable human kidney cancer strain, JRC-11, was subcutaneously transplanted in the armpit of each male F344/N Jcl-rnu nude rat. The treatment of rats (7 rats in each group) started when the rats' tumors grew to an estimated volume of 250 mm^3 as calculated by an equation
wherein L is the length of the tumor and W is the width of the tumor, each being measured by calipers. The treated group (rats to be treated with the test compounds) and the control group were tested under equal conditions concerning the mean value of tumor volume and standard deviation. The test compounds were suspended in a 0.5% aqueous solution of hydroxypropylmethyl cellulose. […]
(§2) A ratio of tumor growth of each rat was calculated from two tumor volumes on the first day of administration and on the day following the last administration. A mean ratio of tumor growth of the group (T) or the control group (C) was calculated from said ratio. Then, a tumor growth inhibition ratio (%) was calculated by the following equation: […]
(b) The same experiment as in (a) was conducted except that a nude rat-transplantable human stomach cancer strain, H-81, was used in place of the nude rat-transplantable human kidney cancer strain, JRC-11. A tumor growth inhibition ratio was calculated.

[4] = system: human kidney cancer strain, JRC-11; experiment: Tumor growth inhibition, nude rat-transplantable human kidney cancer strain JRC-11 (Pharmacological Test Example 2(a)); assay type: in vivo, human tumor in male F344/N Jcl-rnu nude rat; details: once a day for 14 consecutive days
From the text: as §1
wherein L is the length of the tumor and W is the width of the tumor, each being measured by calipers. The treated group (rats to be treated with the test compounds) and the control group were tested under equal conditions concerning the mean value of tumor volume and standard deviation. The test compounds were suspended in a 0.5% aqueous solution of hydroxypropylmethyl cellulose. Each suspension was orally administered to rats in an amount of 1.0 ml per 100 g of rats' body weight once a day for 14 consecutive days. Only a solution of hydroxypropylmethyl cellulose containing no test compound was orally administered to the control group in an amount of 1.0 ml per 100 g rats' body weight once a day for 14 consecutive days.
as §2

tumor cells = details: in vitro tests; cited from earlier work
[5] = under the influence of pyrimidine nucleoside phosphorylase; cited from earlier work
Yoshida sarcoma cells [6] = experiment: Antitumor effect on subcutaneously transplanted Yoshida sarcoma (Pharmacological Test Example 1); assay type: in vivo, rat (male Donryu/CRJ strain); details: for ED50: Rattus norvegicus, YOSHIDA, iv, read-out: ED50 (effective dose for achieving 50% inhibition of tumor growth)
[7] = CVI: continuous intravenous drip injection

Row | SMILES | TD50 ([1]; po) [mg/kg] | ED50 (Yoshida sarcoma cells [2]) [mg/kg] | T.I. (therapeutic index = BWC50/ED50) (Yoshida sarcoma cells [2]) | also measured
1 | CCCOc1nc(=O)n([C@H]2C[C@H](OCc3ccc(Cl)cc3Cl)[C@@H](CO)O2)cc1F [Compound 12] | 16 | 3 | 5.3 | 
2 | CCCOc1nc(=O)n([C@H]2C[C@H](OCc3ccc(Cl)cc3F)[C@@H](CO)O2)cc1F [Compound 3] | 14 | 4 | 3.5 | 
3 | CCCCC(=O)OC[C@H]1O[C@@H](n2cc(F)c(OCc3ccc(F)cc3)nc2=O)C[C@@H]1OC(=O)CCCC [Comparative Compound 3, 2'-deoxy-4-O-(4-fluorobenzyl)-3',5'-di-O-n-pentanoyl-5-fluorouridine] | 40 | > 40 | < 1.0 | 
4 | CCOc1nc(=O)n([C@H]2C[C@H](OCc3ccc(Cl)cc3F)[C@@H](CO)O2)cc1F [Compound 13, 3'-O-(4-chloro-2-fluorobenzyl)-2'-deoxy-4-O-ethyl-5-fluorouridine] |  |  |  | Inhibition ratio (%) (tumor growth) ([3]; 3.75 mg/kg oral): 74%; Inhibition ratio (%) (tumor growth) ([3]; 7.5 mg/kg oral): 79%; Inhibition ratio (%) (tumor growth) ([4]; 3.75 mg/kg oral): 67%; Inhibition ratio (%) (tumor growth) ([4]; 7.5 mg/kg oral): 73%
5 | CCCOc1nc(=O)n([C@H]2C[C@H](OCc3ccc(F)cc3F)[C@@H](CO)O2)cc1F [Compound 7] | 18 | 7.5 | 2.4 | 
6 | O=c1[nH]c(=O)n([C@H]2C[C@H](O)[C@@H](CO)O2)cc1F [FdUrd, 2'-deoxy-5-fluorouridine] |  |  |  | TD50 ([1]; iv, CVI: continuous intravenous drip injection, read-out: BWC50 (dose of 50% inhibition of body weight gain)): 0.7 mg/kg; TD50 ([1]; iv, iv: intravenous injection, read-out: BWC50 (dose of 50% inhibition of body weight gain)): 60 mg/kg; inhibition of the growth of tumor cells (tumor cells): significantly inhibits the growth of tumor cells; therapeutic effect in vivo [5]: can not produce a satisfactory therapeutic effect; T.I. (therapeutic index = BWC50/ED50) (Yoshida sarcoma cells [6]; [7]): 0.88; ED50 (Yoshida sarcoma cells [6]; [7]): 0.8 mg/kg; ED50 (Yoshida sarcoma cells [6]; iv: intravenous injection): 44 mg/kg; T.I. (therapeutic index = BWC50/ED50) (Yoshida sarcoma cells [6]; iv: intravenous injection): 1.36
7 | O=c1[nH]c(=O)n([C@H]2C[C@H](OCc3ccc(Cl)cc3F)[C@@H](CO)O2)cc1F [Comparative Compound 1, 3'-O-(4-chloro-2-fluorobenzyl)-2'-deoxy-5-fluorouridine] | 8.5 | 7.5 | 1.1 | 
8 | CCCOc1nc(=O)n([C@H]2C[C@H](O)[C@@H](CO)O2)cc1F [Comparative Compound 2, 2'-deoxy-4-O-n-propyl-5-fluorouridine] | 37 | 34 | 1.1 | 

Source: US5869464A, “2'-Deoxy-5-fluorouridine derivatives, a process for their preparation, antitumor agents containing same and methods for using said agents” (Taiho Pharmaceutical Co. Ltd., priority 1993, dated 1999)
